Measured values from the supplement of paper PMC10331698.
± gives the standard deviation of the averaged measurements.

How the values were obtained:
[1] = compound: C=CC(=O)OCC(F)(F)C(F)(F)C(F)(F)COC(=O)C=C [1H,1H,5H,5H-Perfluoro-1,5-pentanediol diacrylate]; experiment: LOEC (log10 uM (lowest observed effect concentration))
Description: (§1)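 BioMAP Diversity Plus panel in human primary cell co-cultures, 4 concentrations in duplicate blinded samples. Responses are log10 fold change versus DMSO control, processed with tcpl v2.1.0. A hit is called when responses at any concentration exceed the cutoff (the larger of 3*bmad or log10(1.2)); the lowest observed effect concentration (modl_ga, log10 uM) is reported for hits.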

[2] = compound: O=C(O)C(F)(F)C(F)(F)C(F)(F)C(F)(F)C(F)(F)C(F)(F)C(F)(F)C(F)(F)C(F)(F)C(F)F [11-H-Perfluoroundecanoic acid]; experiment: as above
Description: as §1

Row | Test System | LOEC (log10 uM) [1] | LOEC (log10 uM) [2]
1 | 3C Eselectin down | 0.573 ± 0.39 | –
2 | 3C ICAM1 down | 1.3 | –
3 | 3C IL8 down | 1.3 | –
4 | 3C MCP1 down | 1.3 | 1.78
5 | 3C MIG down | 1.3 | –
6 | 3C TissueFactor down | 0.845 | –
7 | 3C VCAM1 down | 0.845 | –
8 | 4H MCP1 down | 1.3 | –
9 | 4H Pselectin down | 1.3 | –
10 | 4H VCAM1 down | 1.3 | 1.78
11 | 4H uPAR down | 1.04 ± 1 | –
12 | BE3C Keratin818 down | – | 1.54 ± 0.34
13 | BF4T CD90 down | – | 1.54 ± 0.34
14 | BF4T Keratin818 down | 1.78 | 1.78
15 | BF4T MMP3 down | – | 1.78
16 | BT Bcell Proliferation down | 0.845 | –
17 | BT PBMCCytotoxicity down | 0.573 ± 0.39 | –
18 | BT sIgG down | 0.845 | –
19 | BT xIL2 down | 0.845 | –

Row | Test System | LOEC (log10 uM) [1] | LOEC (log10 uM) [2]
20 | BT xIL6 down | 0.573 ± 0.39 | –
21 | BT xIL17A down | 0.845 | –
22 | BT xIL17F down | 0.301 | –
23 | BT xTNFa down | 0.301 | –
24 | CASM3C HLADR down | 1.3 | –
25 | CASM3C IL6 down | 1.3 | –
26 | CASM3C IL8 down | 1.3 | –
27 | CASM3C LDLR down | 1.78 | –
28 | CASM3C MCP1 down | 1.78 | –
29 | CASM3C MCSF down | 1.3 | –
30 | CASM3C MIG down | 0.845 | –
31 | CASM3C PAI1 down | 1.78 | –
32 | CASM3C Proliferation down | 0.573 ± 0.39 | –
33 | CASM3C SAA down | 1.78 | –
34 | CASM3C SRB down | 1.54 ± 0.34 | –
35 | CASM3C Thrombomodulin up | 1.3 | –
36 | CASM3C VCAM1 down | 0.845 | –
37 | CASM3C uPAR down | 1.78 | –
38 | IMphg IL8 down | 1.78 | –

Row | Test System | LOEC (log10 uM) [1] | LOEC (log10 uM) [2]
39 | IMphg MIP1a down | 1.78 | –
40 | IMphg SRB down | – | 1.78
41 | IMphg SRB.Mphg down | 1.78 | 1.78
42 | IMphg VCAM1 down | 1.07 ± 0.32 | 1.78
43 | KF3CT ICAM1 down | 1.07 ± 0.32 | –
44 | KF3CT IL1a down | 0.573 ± 0.39 | 1.78
45 | KF3CT IL8 down | 1.3 | –
46 | KF3CT MCP1 down | 1.3 | 1.3
47 | KF3CT MIG down | 1.3 | 1.78
48 | KF3CT SRB down | 1.3 | 1.78
49 | KF3CT TIMP2 down | 1.78 | –
50 | KF3CT uPA down | 1.3 | 1.78
51 | LPS Eselectin down | 1.3 | 1.78
52 | LPS IL1a down | 1.3 | –
53 | LPS IL8 down | 1.3 | –
54 | LPS MCP1 down | 1.3 | 1.78
55 | LPS MCSF down | 1.3 | –
56 | LPS SRB down | 1.3 | 1.78
